From US6486126B1, “Antioxidant activity in SDG metabolites” (University of Saskatchewan Technologies Incorporated, priority 1999, dated 2002)
Read-outs that look alike come from different tables or passages of the source.

Experiments:
[1] = system: zymosan-stimulated polymorphonuclear leukocytes; assay: Luminol-dependent chemiluminescence of zymosan-stimulated PMNLs in blood (PMNL-CL); type: cell-based, human; conditions: for inhibition at 1000 µg/mL / inhibition at 2500 µg/mL / inhibition at 5000 µg/mL: Homo sapiens, Leukocyte; for antioxidant potency as compared to vitamin E: ratio of inhibition of PMNL-CL at 2.5 mg/ml, relative to vitamin E
Experimental: (§1) Antioxidant activity of SDG, SECO, ED, EL and vitamin E (alpha-tochopherol phosphate) was measured using the ability of these compounds to reduce the chemiluminescence of activated PMNLs [polymorphonuclear leukocytes chemiluminescence (PMNL-CL)]. Activated polymorphonuclear leukocytes produce superoxide anion (O2^−), hydrogen peroxide (H2O2), hydroxyl radical (.OH) and singlet oxygen (^1O2). Chemiluminescence is amplified by luminol, which is converted to an excited aminophthalate ion in the presence of oxidizing species like O2^−, H2O2, .OH and ^1O2. Luminol-dependent CL reflects the amount of activated oxygen species generated from activated phagocytes, thus, this method can be used to monitor the reactive oxygen species produced by PMNLs. Agents which scavenge O2^−, H2O2, .OH and ^1O2 would reduce PMNL-CL. The SDG, SECO, ED and EL were all obtained from Agriculture and Agri-Food Canada, Saskatoon, Saskatchewan.
(§2) Venous blood from healthy subjects, after their informed consent, was collected in ethylenediamine tetraacetic acid (EDTA)-containing tubes for PMNL counts, and PMNL-CL. PMNL and WBC counts were made using Technicon H6000 system (Technicon Instruments, Tarrytown, N.Y.). PMNL-CL a measure of reactive oxygen species produced by PMNLs was measured by a method described in Prasad et al., Effect of polymorphonuclear leukocyte-derived oxygen free radicals and hypochlorous acid or cardiac function and some biochemical parameters, Am. Heart J. 119:538-550, 1990. Blood (0.05 ml) was added to a glass tube containing Hank's balanced salt solution (HBSS) buffer (pH 7.40) and luminol at a final concentration of 10^−4 M. To assess the ability of various test materials in the varying amounts (1.0, 2.5, 5.0 and 10 mg/ml) in the powder form, were each added to the test tube containing blood, shaken well and incubated for 15 minutes at room temperature. The final volume of the mixture in these tubes was 0.5 ml. All the test tubes were placed in a luminometer for 5 min at 37° C., and phagocytosis was initiated by the addition of 0.1 ml (10 mg/ml) of opsonized zymosan prepared by previously described method (Prasad et al., 1990). The chemiluminescence was monitored with an Auto Lumat, LB953 luminometer (Egg Berthold, Berthold Analytical Instrument Inc., 472 Amherst Street, Nashua, N.H., 03063) for 3 seconds every 2 or 3 minutes (depending on the sample number) for a period of 60 minutes. The integrated area under the curve gives the total luminal-dependent chemiluminescent response during the period of monitoring, which represents the oxygen derived CL. The difference in the integrated area under zymosan-activated in the absence and in the presence of various compounds under investigation is designated as particular compound inhibitable oxygen derived radical CL. The unit for chemiluminescence is in counts per minute (cpm). The integrated area under the curve is in cpm.m. The unit for chemiluminescence is cpm.m.10^−6 PMNLs because the chemiluminescence is expressed in terms of 10^−6 PMNL counts. The peak chemiluminescence is cpm 10^−6 PMNLs.
The results are expressed as mean±SE and n=sample size. One-way Analysis of Variance (ANOVA) followed by Scheffe test was used to derive differences between different groups. A “p” value of less than 0.05 was considered significant.

[2] = system: unstimulated blood (BL); assay: Integrated luminol-dependent chemiluminescence of unstimulated blood; type: cell-based, human; conditions: 2.5 mg/ml, mean ± SE from 16 samples
Experimental: as §1
as §2, with “The difference in the integrated area under zymosan-activated in the absence and in the presence of various compounds under investigation is designated as particular compound inhibitable oxygen derived radical CL. The unit for chemiluminescence is in counts per minute (cpm). The integrated area under the curve is in cpm.m. The unit for chemiluminescence is cpm.m.10^−6 PMNLs because the chemiluminescence is expressed in terms of 10^−6 PMNL counts. The peak chemiluminescence is cpm 10^−6 PMNLs.” left out
The results are expressed as mean±SE and n=sample size. […]

[3] = 1.0 mg/ml, concentration-response (FIGS. 4-8)
[4] = 2.5 mg/ml, concentration-response (FIGS. 4-8), read-out: inhibition of zymosan-stimulated PMNL-CL
[5] = 5.0 mg/ml, concentration-response (FIGS. 4-8)
[6] = zymosan-stimulated, 2.5 mg/ml, comparison experiment (FIG. 3), read-out: percentage inhibition of PMNL-CL
[7] = 2.5 mg/ml, concentration-response (FIGS. 4-8)
[8] = zymosan-stimulated, 2.5 mg/ml, comparison experiment (FIG. 3)
[9] = 10.0 mg/ml, concentration-response (FIGS. 4-8)

Structure (SMILES) | inhibition at 1000 µg/mL [1, 3] | inhibition at 2500 µg/mL [1, 4] | inhibition at 5000 µg/mL [1, 5] | inhibition at 2500 µg/mL [1, 6] | antioxidant potency as compared to vitamin E [1] | antioxidant potency relative to SDG (times more potent than SDG) [1] | Integrated CL of unstimulated blood (BL) in the presence of compound [2] | inhibition of zymosan-stimulated PMNL-CL [1, 3] | inhibition of zymosan-stimulated PMNL-CL [1, 7] | inhibition of zymosan-stimulated PMNL-CL [1, 5] | percentage inhibition of PMNL-CL [1, 8] | effect on zymosan-stimulated PMNL-CL (in words) ([1]; 1.0 mg/ml) | inhibition of zymosan-stimulated PMNL-CL [1, 9]
OC[C@H](Cc1cccc(O)c1)[C@H](CO)Cc1cccc(O)c1 [ED, enterodiol] | 82% | 96% | 95% | 94.2% | 5.02 times | 3.95 times | 1.073 ± 0.048 ×10^6 cpm · m · 10^−6 PMNLs |  |  |  |  |  | 
COc1cc(C[C@@H](CO[C@@H]2O[C@H](CO)[C@@H](O)[C@H](O)[C@H]2O)[C@H](CO[C@@H]2O[C@H](CO)[C@@H](O)[C@H](O)[C@H]2O)Cc2ccc(O)c(OC)c2)ccc1O [SDG, secoisolariciresinol diglucoside, reference compound] |  |  |  |  | 1.27 times |  | 2.463 ± 0.159 ×10^6 cpm · m · 10^−6 PMNLs | 24% | 30% | 48% | 23.87% |  | 
O=C1OC[C@H](Cc2cccc(O)c2)[C@H]1Cc1cccc(O)c1 [EL, enterolactone] | 81% | 86% | 83% | 81.6% | 4.35 times | 3.43 times | 2.177 ± 0.138 ×10^6 cpm · m · 10^−6 PMNLs |  |  |  |  |  | 
Cc1c(C)c2c(c(C)c1OP(=O)(O)O)CC[C@@](C)(CCC[C@H](C)CCC[C@H](C)CCCC(C)C)O2 [vitamin E, alpha-tochopherol phosphate, reference compound] |  |  |  |  |  |  |  |  | 17% | 88% | 18.75% | increase in the PMNL-CL | 97%
COc1cc(C[C@@H](CO)[C@H](CO)Cc2ccc(O)c(OC)c2)ccc1O [SECO, secoisolariciresinol] |  |  |  |  | 4.86 times | 3.82 times | 0.878 ± 0.023 ×10^6 cpm · m · 10^−6 PMNLs | 78% | 93% | 99.5% | 91.2% |  | 100%
